How the values were obtained:
Format in all cases: biochemical
Conditions in all cases: apparent Ki via Cheng-Prusoff from IC50; room temperature, 1 nM enzyme
thrombin = thrombin (Homo sapiens, UniProt P00734); assay: Enzyme assay, inhibition of thrombin using purified enzyme (chromogenic peptide-p-nitroanilide substrate)
Description: All enzyme as says are carried out at room temperature in 96-well microtiter plates using a final enzyme concentration of 1 nM. The concentrations of factor Xa and thrombin are determined by active site titration and the concentrations of all other enzymes are based on the protein concentration supplied by the manufacturer. Compounds according to the invention are dissolved in DMSO, diluted with their respective buffers and assayed at a maximal final DMSO concentration of 1.25%. […] The enzyme reactions are initiated by the addition of substrate and the color developed from the hydrolysis of the peptide-p-nitroanilide substrates is monitored continuously for 5 minutes at 405 nm on a Vmax microplate reader (Molecular Devices). Under these conditions, less than 10% of the substrate is utilized in all assays. […] The apparent Ki values are then determined according to the Cheng-Prusoff equation (IC50=Ki[1+[S]J/Km]) assuming competitive inhibition kinetics.

factor Xa = factor Xa (Homo sapiens, UniProt P00742); assay: Enzyme assay, inhibition of factor Xa using purified enzyme (chromogenic peptide-p-nitroanilide substrate)
Description: (§1) All enzyme as says are carried out at room temperature in 96-well microtiter plates using a final enzyme concentration of 1 nM. The concentrations of factor Xa and thrombin are determined by active site titration and the concentrations of all other enzymes are based on the protein concentration supplied by the manufacturer. Compounds according to the invention are dissolved in DMSO, diluted with their respective buffers and assayed at a maximal final DMSO concentration of 1.25%. Compound dilutions are added to wells containing buffer and enzyme and pre-equilibrated for between 5 and 30 minutes. The enzyme reactions are initiated by the addition of substrate and the color developed from the hydrolysis of the peptide-p-nitroanilide substrates is monitored continuously for 5 minutes at 405 nm on a Vmax microplate reader (Molecular Devices). Under these conditions, less than 10% of the substrate is utilized in all assays. […] The apparent Ki values are then determined according to the Cheng-Prusoff equation (IC50=Ki[1+[S]J/Km]) assuming competitive inhibition kinetics.

trypsin = target: T1, trypsin (Bos taurus, UniProt P00760); assay: Enzyme assay, inhibition of trypsin using purified enzyme (chromogenic peptide-p-nitroanilide substrate)
T1 construct: factor Xa, thromb in, trypsin; purchased
T1 sequence (P00760 24-246): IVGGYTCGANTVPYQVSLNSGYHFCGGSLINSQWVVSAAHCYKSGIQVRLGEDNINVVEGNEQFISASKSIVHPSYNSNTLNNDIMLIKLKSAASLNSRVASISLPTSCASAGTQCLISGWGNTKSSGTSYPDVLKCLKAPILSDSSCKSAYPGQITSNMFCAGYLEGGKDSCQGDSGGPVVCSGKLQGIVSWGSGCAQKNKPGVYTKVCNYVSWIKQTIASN
Description: as §1

Sequence of factor Xa (P00742 235-488 limits assumed): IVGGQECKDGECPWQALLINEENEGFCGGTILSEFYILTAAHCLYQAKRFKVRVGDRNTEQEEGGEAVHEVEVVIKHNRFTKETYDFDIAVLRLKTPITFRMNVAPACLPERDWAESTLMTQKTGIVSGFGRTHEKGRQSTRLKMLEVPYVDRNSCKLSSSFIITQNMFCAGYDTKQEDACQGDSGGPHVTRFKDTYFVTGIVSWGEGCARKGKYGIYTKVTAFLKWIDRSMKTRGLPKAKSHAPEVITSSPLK
Sequence of factor Xa (P00742 41-179 partner limits assumed): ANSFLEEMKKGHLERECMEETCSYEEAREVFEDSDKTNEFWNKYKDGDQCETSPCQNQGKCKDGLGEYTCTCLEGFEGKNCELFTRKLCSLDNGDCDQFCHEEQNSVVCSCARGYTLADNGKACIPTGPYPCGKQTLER

Structure (SMILES): CC(=O)OCC(Cc1cccc(C(=N)N)c1)C(/C=C/c1ccccc1)NC(=O)c1ccc(-c2ccccc2)cc1 (stereo not drawn) [Compound 45]
- Ki (thrombin): 0.477 µM
- Ki (factor Xa): 0.094 µM
- Ki (trypsin): 0.129 µM

Structure (SMILES): COc1ccc(-c2ccc(C(=O)NC(CCc3ccccc3)C(COC(C)=O)Cc3cccc(C(=N)N)c3)cc2)cc1OC (stereo not drawn) [Compound 167]
- Ki (thrombin): 1.23 µM
- Ki (factor Xa): 0.019 µM
- Ki (trypsin): 0.046 µM

Structure (SMILES): CN(C)Cc1cccc(-c2ccc(C(=O)NC(Cc3ccccc3)C(CO)Cc3cccc(C(=N)N)c3)cc2)c1 (stereo not drawn) [Compound 184]
- Ki (thrombin): 2.71 µM
- Ki (factor Xa): 0.027 µM
- Ki (trypsin): 1.72 µM
